Source: US20080207632A1, “PROTEIN KINASE INHIBITORS” (SUPERGEN, INC., priority 2006, published 2008)
Like-named read-outs stand apart in the source and are kept apart here.

Legend:
Assay type in all cases: cell-based
[1] = test system: HepG2 (hepatocellular carcinoma); assay: in vitro cytotoxicity assay (Cell-Titer-Glo), HepG2; conditions: Homo sapiens, HepG2, 96 h, 4 days
Experimental: (§1) To evaluate cell killing of cancer cell lines, an in vitro cytotoxicity assay was performed. The tumor cell lines used were purchased from the American Type Culture Collection, and are identified as follows: Panc-1 (pancreas), MiaPaCa-2 (pancreas), MCF-7 (breast), HT-29 (colon), U2-OS (osteosarcoma), OVCAR-3 (ovary), HepG2 (hepatocellular carcinoma) and TT (medullary thyroid). The assay utilized the Cell-Titer-Glo Non-Radioactive Cell Proliferation Assay (Promega Corp., Madison, Wis.). First the cells were cultured in RPMI 1640 medium (Cat# 21870-076, Invitrogen Corporation) supplemented with 300 mg/L L-glutamine, 100 units/ml penicillin, 100 μg/ml streptomycin and 10% fetal bovine serum. All the cell lines were incubated in a humidified incubator at 37° C. with 5% CO2 atmosphere.
(§2) Cells were plated at a density of 2000 to 10000 cells per well, depending on their growth rate, in 0.09 mL medium on day 0 in 96-well Microlite TCT microtiter plates (7418, Thermo Labsystems, Franklin, Mass.). On day 1, 10 μL of serial dilutions of the individual compounds were added to the plates in replicates of 3. After incubation for 4 days at 37° C. in a humidified incubator, the cells were lysed in the Cell-Titer-Glo reagent, which also contains luciferase enzyme. The luciferase reaction utilizes ATP released from lysed cells to produce light, the intensity of which is linearly related to the amount of ATP. Thus, the amount of light produced is a reflection of the number of cells remaining in the well after drug treatment. This luminescence was measured using a Luminoskan luminometer (Thermo Electron Corp., Vantaa, Finland) Data were expressed as the percentage of survival of control cells calculated from the luminescence corrected for background. The surviving percent of cells was determined by dividing the mean luminescence values of the treated wells by the mean luminescence values of the control and multiplying by 100.
as §1, with “Briefly,” for “To evaluate cell killing of cancer cell lines, an in vitro cytotoxicity assay was performed. The”, “thyroid), PC-3 (prostate) and A549 (lung).” for “thyroid).”
as §1, with “carcinoma), PC-3 (prostate),” for “carcinoma)”, “A549 (lung).” for “TT (medullary thyroid).”
(§3) Cells were plated at a density of 2000 to 10000 cells per well, depending on their growth rate, in 0.09 mL medium on day 0 in 96-well Microlite TCT microtiter plates (#7418, Thermo Labsystems, Franklin, Mass.). On day 1, 10 μL of serial dilutions of the individual compounds were added to the plates in replicates of 3. After incubation for 4 days at 37° C. in a humidified incubator, the cells were lysed in the Cell-Titer-Glo reagent, which also contains luciferase enzyme. […]

[2] = test system: OVCAR-3 (ovary); assay: in vitro cytotoxicity assay (Cell-Titer-Glo), OVCAR-3; conditions: Homo sapiens
Experimental: as §1, §2
as §1, with “Briefly,” for “To evaluate cell killing of cancer cell lines, an in vitro cytotoxicity assay was performed. The”, “thyroid), PC-3 (prostate) and A549 (lung).” for “thyroid).”
as §1, with “carcinoma), PC-3 (prostate),” for “carcinoma)”, “A549 (lung).” for “TT (medullary thyroid).”
as §3

[3] = test system: MCF-7 (breast); assay: in vitro cytotoxicity assay (Cell-Titer-Glo), MCF-7; conditions: Homo sapiens
Experimental: as §1, §2
as §1, with “Briefly,” for “To evaluate cell killing of cancer cell lines, an in vitro cytotoxicity assay was performed. The”, “thyroid), PC-3 (prostate) and A549 (lung).” for “thyroid).”
as §1, with “carcinoma), PC-3 (prostate),” for “carcinoma)”, “A549 (lung).” for “TT (medullary thyroid).”
as §3

[4] = test system: MiaPaCa-2 (pancreas); assay: in vitro cytotoxicity assay (Cell-Titer-Glo), MiaPaCa-2; conditions: Homo sapiens, MIA PaCa-2, 96 h, 4 days
Experimental: as §1, §2
as §1, with “Briefly,” for “To evaluate cell killing of cancer cell lines, an in vitro cytotoxicity assay was performed. The”, “thyroid), PC-3 (prostate) and A549 (lung).” for “thyroid).”
as §1, with “carcinoma), PC-3 (prostate),” for “carcinoma)”, “A549 (lung).” for “TT (medullary thyroid).”
as §3

[5] = test system: PC-3 (prostate); assay: in vitro cytotoxicity assay (Cell-Titer-Glo), PC-3
Experimental: as §1, with “Briefly,” for “To evaluate cell killing of cancer cell lines, an in vitro cytotoxicity assay was performed. The”, “thyroid), PC-3 (prostate) and A549 (lung).” for “thyroid).”
as §2
as §1, with “carcinoma), PC-3 (prostate),” for “carcinoma)”, “A549 (lung).” for “TT (medullary thyroid).”
as §2, with “(#7418,” for “(7418,”, “100. […]” for “100.”

[6] = test system: HT-29 (colon); assay: in vitro cytotoxicity assay (Cell-Titer-Glo), HT-29; conditions: Homo sapiens
Experimental: as §1, §2
as §1, with “Briefly,” for “To evaluate cell killing of cancer cell lines, an in vitro cytotoxicity assay was performed. The”, “thyroid), PC-3 (prostate) and A549 (lung).” for “thyroid).”
as §1, with “carcinoma), PC-3 (prostate),” for “carcinoma)”, “A549 (lung).” for “TT (medullary thyroid).”
as §3

[7] = test system: A549 (lung); assay: in vitro cytotoxicity assay (Cell-Titer-Glo), A549; conditions: Homo sapiens
Experimental: as §1, with “Briefly,” for “To evaluate cell killing of cancer cell lines, an in vitro cytotoxicity assay was performed. The”, “thyroid), PC-3 (prostate) and A549 (lung).” for “thyroid).”
as §2
as §1, with “carcinoma), PC-3 (prostate),” for “carcinoma)”, “A549 (lung).” for “TT (medullary thyroid).”
as §2, with “(#7418,” for “(7418,”, “100. […]” for “100.”

[8] = test system: U2-OS (osteosarcoma); assay: in vitro cytotoxicity assay (Cell-Titer-Glo), U2-OS; conditions: Homo sapiens, U2OS
Experimental: as §1, §2
as §1, with “Briefly,” for “To evaluate cell killing of cancer cell lines, an in vitro cytotoxicity assay was performed. The”, “thyroid), PC-3 (prostate) and A549 (lung).” for “thyroid).”
as §1, with “carcinoma), PC-3 (prostate),” for “carcinoma)”, “A549 (lung).” for “TT (medullary thyroid).”
as §3

[9] = Example 20, read-out: Cell-based IC50 values HepG2
[10] = OVCAR-3, 96 h, Example 20, 4 days, read-out: Cell-based IC50 values OVCAR-3
[11] = MCF7, 96 h, Example 20, 4 days, read-out: Cell-based IC50 values MCF-7
[12] = Example 20, read-out: Cell-based IC50 values MiaPaCa-2
[13] = 96 h, Example 20, 4 days, read-out: Cell-based IC50 values PC-3
[14] = HT-29, 96 h, Example 20, 4 days, read-out: Cell-based IC50 values HT-29
[15] = A549, 96 h, Example 20, 4 days, read-out: Cell-based IC50 values A549
[16] = 96 h, Example 20, 4 days, read-out: Cell-based IC50 values U2-Os

Structure (SMILES)	IC50 ([1]; Example 18, read-out: calculated IC50 HepG2) [µM]	IC50 [1, 9] [µM]	IC50 ([2]; OVCAR-3, 96 h, Example 18, 4 days, read-out: calculated IC50 OVCAR-3) [µM]	IC50 [2, 10] [µM]	IC50 ([2]; OVCAR-3, Table 10, 96 hours, read-out: IC50 OVCAR-3 (inhibit cell growth to 50% of untreated)) [µM]	IC50 ([3]; MCF7, 96 h, Example 18, 4 days, read-out: calculated IC50 MCF-7) [µM]	IC50 [3, 11] [µM]	IC50 ([3]; MCF7, Table 10, 96 hours, read-out: IC50 MCF-7 (inhibit cell growth to 50% of untreated)) [µM]	IC50 ([4]; Example 18, read-out: calculated IC50 MiaPaCa-2) [µM]	IC50 [4, 12] [µM]	IC50 [5, 13] [µM]	IC50 ([5]; Table 10, 96 hours, read-out: IC50 PC-3 (inhibit cell growth to 50% of untreated)) [µM]	IC50 ([6]; HT-29, 96 h, Example 18, 4 days, read-out: calculated IC50 HT-29) [µM]	IC50 [6, 14] [µM]	IC50 ([6]; HT-29, Table 10, 96 hours, read-out: IC50 HT-29 (inhibit cell growth to 50% of untreated)) [µM]	IC50 [7, 15] [µM]	IC50 ([7]; A549, Table 10, 96 hours, read-out: IC50 A549 (inhibit cell growth to 50% of untreated)) [µM]	IC50 ([8]; 96 h, Example 18, 4 days, read-out: calculated IC50 U2-OS) [µM]	IC50 [8, 16] [µM]	IC50 ([8]; Table 10, 96 hours, read-out: IC50 U2-Os (inhibit cell growth to 50% of untreated)) [µM]
CC(=O)NS(=O)(=O)c1ccc(NC(=S)N2CCN(c3ncnc4[nH]c5cc(C(F)(F)F)c(Cl)cc5c34)CC2)cc1 [Compound 1-1, 4-(6-Chloro-7-trifluoromethyl-9H-pyrimido[4,5-b]indol-4-yl)-piperazine-1-carbothioic acid (4-acetylsulfamoyl-phenyl)-amide]	7.83	26	25	13.1	25	22.5	14.6	22.5	66.6	18.6	52.3	28.4	14.7	5.01	14.7	53.8	19	25.9	13.2	25.9
COc1cc2[nH]c3ncnc(N4CCN(C(=S)Nc5ccc(S(=O)(=O)NC(C)=O)cc5)CC4)c3c2cc1OC [Compound 1-2, 4-(6,7-Dimethoxy-9H-pyrimido[4,5-b]indol-4-yl)-piperazine-1-carbothioic acid (4-acetylsulfamoyl-phenyl)-amide]	–	295	–	29.4	–	–	126	–	–	173	164	–	–	93.6	–	194	–	–	71.7	–
CC(=O)NS(=O)(=O)c1ccc(NC(=S)N2CCN(c3ncnc4[nH]c5ccc(Cl)cc5c34)CC2)cc1 [Compound 1-3, 4-(6-chloro-9H-pyrimido[4,5-b]indol-4-yl)-piperazine-1-carbothioic acid (4-acetylsulfamoyl-phenyl)-amide]	–	49.6	–	48	–	–	209	–	–	22.1	47.3	–	–	29.8	–	37	–	–	20.8	–
CC(=O)NS(=O)(=O)c1ccc(NC(=S)N2CCN(c3ncnc4[nH]c5cc(F)ccc5c34)CC2)cc1 [Compound 1-4]	–	88	–	79	–	–	249	–	–	85.2	160	–	–	103	–	72.7	–	–	36.3	–
COc1cc2c(cc1O)[nH]c1ncnc(N3CCN(C(=S)Nc4ccc(S(=O)(=O)NC(C)=O)cc4)CC3)c12 [Compound 1-8]	–	81.8	–	82.4	–	–	83.1	–	–	–	–	–	–	27.3	–	–	–	–	–	–
COc1cc2[nH]c3ncnc(N4CCN(C(=S)Nc5ccc(S(=O)(=O)N6CCOCC6)cc5)CC4)c3c2cc1OC [Compound 1-26]	–	4.38	–	156	–	–	14.7	–	–	8.92	22.3	–	–	176	–	130	–	–	6.95	–
COc1cc2[nH]c3ncnc(N4CCN(C(=S)Nc5ccc(NC(=O)C6CC6)cc5)CC4)c3c2cc1OC [Compound 1-34]	–	81.9	–	111	–	–	76.9	–	–	9.82	21.9	–	–	138	–	186	–	–	27	–
COc1cc2[nH]c3ncnc(N4CCN(C(=S)Nc5ccc(NC(C)=O)cc5)CC4)c3c2cc1OC [Compound 1-42]	–	98.5	–	85.1	–	–	4.62	–	–	182	189	–	–	140	–	160	–	–	41.3	–
COc1cc2[nH]c3ncnc(N4CCN(C(=S)Nc5ccc(S(N)(=O)=O)cc5)CC4)c3c2cc1OC [Compound 1-107]	–	173	–	176	–	–	> 300	–	–	107	2.33	–	–	> 300	–	51.5	–	–	8.7	–
COc1cc2[nH]c3ncnc(N4CCN(C(=S)Nc5ccc(S(C)(=O)=O)cc5)CC4)c3c2cc1OC [Compound 1-115]	–	57.9	–	175	–	–	87.8	–	–	55.4	75.7	–	–	97.4	–	149	–	–	50.4	–
